Laboratory results as given in article PMC12535377, “Synaptic and intrinsic plasticity mediated by CCK-type signaling coordinates behavioral changes during motivational state shifts” (Cell reports, 2025).
Non-standard residues stand in square brackets, D forms with d. Residues, ends and D or L forms follow the SMILES beside them. sY = N[C@@H](Cc1ccc(OS(=O)(=O)O)cc1)C(=O)O

System: CBI-2-elicited feeding motor programs
Assay: CBI-2-elicited feeding motor programs in isolated cerebral and buccal ganglia
Design: species or system Aplysia californica
Settings: for Protraction duration of CBI-2 programs: 10^-6 M and 10^-5 M tested; for B8 activity (frequency) during retraction: CBI-2 programs, 10^-6 M and 10^-5 M; for Feeding program effect, summary grade: Table S1 summary in words
Experimental: To explore the neural basis of the behavioral effects of apCCKs, we examined their modulation of feeding-motor programs in isolated ganglia. All eight forms of apCCKs were tested on programs induced by CBI-2, a command-like interneuron that is active during food-elicited feeding behavior[56] and provides potent excitatory inputs to buccal central pattern generator (CPG) interneurons,[54],[77] orchestrating ingestive motor programs (Figure S23A). Stable single-cycle motor programs were evoked by stimulating CBI-2 at 8–10 Hz throughout the protraction phase with a 90-s intertrial interval. Two concentrations, 10^−6 M and 10^−5 M, of apCCKs were tested.
Intracellular and extracellular recordings were made as described previously.[57]–[59],[61],[151] To prevent movements of ganglia caused by myoactive apCCK (especially [sY8]-apCCK1 and [sY6, sY8]-apCCK1) during bath application, we treated the ganglia with 0.8% protease IX for 1–2 min prior to desheathing. Subsequently, ganglia were desheathed, transferred to a recording chamber containing ~1.5 mL of ASW (460 mM NaCl, 10 mM KCl, 11mM CaCl2, 55 mM MgCl2, and 10 mM HEPES, pH 7.6), continuously perfused at 0.3 mL/min, and maintained at 14°C–17°C. The experiments examining the effects of apCCKs on excitability of B20/B34/B61/62/B65/B64 neurons were performed in a high divalent saline (368 mM NaCl, 8 mM KCl, 13.8 mM CaCl2, 115 mM MgCl2, and 10 mM HEPES, pH 7.6), which increases the spiking threshold of neurons and therefore curtails polysynaptic influences. Intracellular recordings were obtained using 5–10 MΩ sharp microelectrodes filled with an electrolyte (0.6 M K2SO4 plus 60 mM KCl). Extracellular recordings were acquired from polyethylene suction electrodes. Grass S88 and WPI Pulsemaster A300 stimulators were used to provide timing signals for intracellular and extracellular stimulation. To determine the effects of various forms of apCCKs on Aplysia feeding programs, we performed experiments with the cerebral and buccal ganglia. Freshly made apCCK solution in ASW was perfused into the recording chamber. Feeding-motor programs were elicited by stimulation of command-like neuron CBI-2 at 8–10 Hz or stimulation of the EN at 2 Hz, 3 ms, 15 V, and were monitored by bursting activity of the I2 nerve of the buccal ganglion.[58],[59],[61] Typically, we recorded from motor neuron B8, and one interneuron, e.g., B40 or B20. To determine effects of apCCKs on synaptic strength, we stimulated presynaptic neuron, CBI-2, B34 (plus 1 nA current) or B65 at 10 Hz for 2 s for several trials and waited 1 min between each trial. The stimulation duration for each trial was set at 2 s because this allows the expression of synaptic facilitation without evoking too many spikes. Typically, the amplitude of the last EPSP at each concentration of peptides was quantified unless otherwise stated.

Compound	Protraction duration of CBI-2 programs	B8 activity (frequency) during retraction	Feeding program effect, summary grade
CC[C@H](C)[C@H](NC(=O)CNC(=O)[C@H](Cc1ccc(OS(=O)(=O)O)cc1)NC(=O)[C@H](CC(=O)O)NC(=O)CNC(=O)[C@H](Cc1ccc(OS(=O)(=O)O)cc1)NC(=O)[C@@H](N)CO)C(=O)NCC(=O)NCC(=O)NCC(=O)N[C@@H](CCCNC(=N)N)C(=O)N[C@@H](Cc1ccccc1)C(N)=O [[sY2, sY5]-apCCK2] (H-S[sY]GD[sY]GIGGGRF-NH2)	shortened	reduced	Weak
CC[C@H](C)[C@H](NC(=O)CNC(=O)[C@H](Cc1ccc(O)cc1)NC(=O)[C@H](CC(=O)O)NC(=O)CNC(=O)[C@H](Cc1ccc(OS(=O)(=O)O)cc1)NC(=O)[C@@H](N)CO)C(=O)NCC(=O)NCC(=O)NCC(=O)N[C@@H](CCCNC(=N)N)C(=O)N[C@@H](Cc1ccccc1)C(N)=O [[sY2]-apCCK2] (H-S[sY]GDYGIGGGRF-NH2)	–	–	No effect
CC[C@H](C)[C@H](NC(=O)CNC(=O)[C@H](Cc1ccc(OS(=O)(=O)O)cc1)NC(=O)[C@H](CC(=O)O)NC(=O)CNC(=O)[C@H](Cc1ccc(O)cc1)NC(=O)[C@@H](N)CO)C(=O)NCC(=O)NCC(=O)NCC(=O)N[C@@H](CCCNC(=N)N)C(=O)N[C@@H](Cc1ccccc1)C(N)=O [[sY5]-apCCK2] (H-SYGD[sY]GIGGGRF-NH2)	shortened	reduced	Moderate
H-SYGDYGIGGGRF-NH2 [apCCK2]	–	–	No effect
